Patent US11098038B2, “Imidazole-based anticancer agents and derivatives thereof, and methods of making and using same” (The University of Toledo, priority 2017, dated 2021)

Assays:
Assay type in all cases: cell-based
HOP-92 = test: NCI 60 screen, HOP-92; conditions: Homo sapiens, Non-Small Cell Lung
Experimental: (§1) The compounds synthesized were tested at the National Cancer Institute (NCI) for anti-proliferative activity in the 60 human tumor cell line assay.

SK-MEL-2 [1] = test: NCI 60 screen, SK-MEL-2 (second line); conditions: Homo sapiens; Melanoma, SK-MEL-2 (second of two lines so named, r38)
Experimental: as §1

RXF393 = test: NCI 60 screen, RXF393; conditions: Homo sapiens, RXF 393, Renal
Experimental: as §1

IGROV1 = test: NCI 60 screen, IGROV1; conditions: Homo sapiens, IGROV-1, Ovarian
Experimental: as §1

HCC-2998 = test: NCI 60 screen, HCC-2998; conditions: Homo sapiens, Colon
Experimental: as §1

OVCAR-3 = test: NCI 60 screen, OVCAR-3; conditions: Homo sapiens, Ovarian
Experimental: as §1

HeLa cells = test: Mitotic arrest of HeLa cells observed under the microscope; conditions: 10 μM
Experimental: FIG. 6: Color images showing untreated HeLa cells used as a control. Mitotic duration: 60 minutes. Each frame was taken after 12 minute intervals. Frame 5 to frame 9 show cells' progression through mitosis.
FIG. 7: Color images showing HeLa cells treated with 10 μM of compound 25. Mitotic duration: 27.4 hr.
Although developed as HDAC inhibitors, the compounds herein may actually act by multiple mechanisms. […] Snap shots were taken at a 12 minute interval.
A cell that is rounded up in frame 2 enters mitosis (FIG. 7).

SR = test: NCI 60 screen, SR; conditions: Homo sapiens, Leukemia
Experimental: as §1

CCRF-CEM = test: NCI 60 screen, CCRF-CEM; conditions: Homo sapiens, Leukemia
Experimental: as §1

NCI-322M = test: NCI 60 screen, NCI-322M; conditions: Homo sapiens, Non-Small Cell Lung
Experimental: as §1

UO-31 = test: NCI 60 screen, UO-31; conditions: Homo sapiens, Renal
Experimental: as §1

SK-MEL-2 [2] = test: NCI 60 screen, SK-MEL-2 (first line); conditions: Homo sapiens; Melanoma, SK-MEL-2 (first of two lines so named, r37)
Experimental: as §1

MDA-MB-231/ATCC = test: NCI 60 screen, MDA-MB-231/ATCC; conditions: Homo sapiens, Breast
Experimental: as §1

CAKI-1 = test: NCI 60 screen, CAKI-1; conditions: Homo sapiens, Renal
Experimental: as §1

UACC-62 = test: NCI 60 screen, UACC-62; conditions: Homo sapiens, Melanoma
Experimental: as §1

HCT-116 = test: NCI 60 screen, HCT-116; conditions: Homo sapiens, Colon
Experimental: as §1

MDA-MB-468 = test: NCI 60 screen, MDA-MB-468; conditions: Homo sapiens, Breast
Experimental: as §1

T-47D = test: NCI 60 screen, T-47D; conditions: Homo sapiens, T47D, Breast
Experimental: as §1

DU-145 = test: NCI 60 screen, DU-145; conditions: Homo sapiens, Prostatic
Experimental: as §1

MOLT-4 = test: NCI 60 screen, MOLT-4; conditions: Homo sapiens, Leukemia
Experimental: as §1

MALME-3M = test: NCI 60 screen, MALME-3M; conditions: Homo sapiens, Melanoma
Experimental: as §1

NCI/ADR-RES = test: NCI 60 screen, NCI/ADR-RES; conditions: Homo sapiens, Ovarian
Experimental: as §1

OVCAR-8 = test: NCI 60 screen, OVCAR-8; conditions: Homo sapiens, Ovarian
Experimental: as §1

OVCAR-5 = test: NCI 60 screen, OVCAR-5; conditions: Homo sapiens, Ovarian
Experimental: as §1

PC-3 = test: NCI 60 screen, PC-3; conditions: Homo sapiens, Prostatic
Experimental: as §1

A498 = test: NCI 60 screen, A498; conditions: Homo sapiens, Renal
Experimental: as §1

SW-620 = test: NCI 60 screen, SW-620; conditions: Homo sapiens, Colon
Experimental: as §1

SK-MEL-5 = test: NCI 60 screen, SK-MEL-5; conditions: Homo sapiens, Melanoma
Experimental: as §1

HOP-62 = test: NCI 60 screen, HOP-62; conditions: Homo sapiens, Non-Small Cell Lung
Experimental: as §1

NCI-H522 = test: NCI 60 screen, NCI-H522; conditions: Homo sapiens, Non-Small Cell Lung
Experimental: as §1

HCT15 = test: NCI 60 screen, HCT15; conditions: Homo sapiens, HCT-15, Colon
Experimental: as §1

MDA-MB-435 = test: NCI 60 screen, MDA-MB-435; conditions: Homo sapiens, Melanoma
Experimental: as §1

OVCAR-4 = test: NCI 60 screen, OVCAR-4; conditions: Homo sapiens, Ovarian
Experimental: as §1

SN12C = test: NCI 60 screen, SN12C; conditions: Homo sapiens, Renal
Experimental: as §1

BT-549 = test: NCI 60 screen, BT-549; conditions: Homo sapiens, Breast
Experimental: as §1

SNB-75 = test: NCI 60 screen, SNB-75; conditions: Homo sapiens, CNS
Experimental: as §1

UACC-257 = test: NCI 60 screen, UACC-257; conditions: Homo sapiens, Melanoma
Experimental: as §1

NCI-460 = test: NCI 60 screen, NCI-460; conditions: Homo sapiens, Non-Small Cell Lung
Experimental: as §1

HL-60(TB) = test: NCI 60 screen, HL-60(TB); conditions: Homo sapiens, Leukemia
Experimental: as §1

HS 578T = test: NCI 60 screen, HS 578T; conditions: Homo sapiens, Breast
Experimental: as §1

LOX IMVI = test: NCI 60 screen, LOX IMVI; conditions: Homo sapiens, Melanoma
Experimental: as §1

786-0 = test: NCI 60 screen, 786-0; conditions: Homo sapiens, Renal
Experimental: as §1

Q: For O=C(Cc1ccc(/C=C/C(=O)c2ncc[nH]2)cc1)Nc1ccc(Cl)cc1 [Compound 25, (E)-2-(-4 (3-(1H-imidazol-2-yl)-3-oxoprop-1-en-1-yl)phenyl)-N-(4-chlorophenyl)acetamide], which GI50 (HOP-92) is on record?
A: 5.74 µM

Q: What about the GI50 (SK-MEL-2 [1]) of the same molecule?
A: 4.81 µM

Q: What about the GI50 (RXF393) of the same molecule?
A: 3.05 µM

Q: And the GI50 (IGROV1)?
A: 3.59 µM

Q: And the GI50 (HCC-2998)?
A: 3.73 µM

Q: And the GI50 (OVCAR-3)?
A: 1140 nM

Q: What about the “Fate of arrested cells” value (HeLa cells) of the same molecule?
A: eventually underwent apoptosis

Q: What about the “Mitotic arrest (progress through cell division)” value (HeLa cells; monitored for over 27.4 hours) of the same molecule?
A: did not proceed with cell division

Q: And the Mitotic duration (HeLa cells; untreated control 60 minutes)?
A: 27.4 h

Q: And the GI50 (SR)?
A: 798 nM

Q: What about the GI50 (CCRF-CEM) of the same molecule?
A: 1080 nM

Q: And the GI50 (NCI-322M)?
A: 4 µM

Q: And the GI50 (UO-31)?
A: 1690 nM

Q: What about the GI50 (SK-MEL-2 [2]) of the same molecule?
A: 5.53 µM

Q: And the GI50 (MDA-MB-231/ATCC)?
A: 4.27 µM

Q: What about the GI50 (CAKI-1) of the same molecule?
A: 4.88 µM

Q: And the GI50 (UACC-62)?
A: 3.94 µM

Q: What about the GI50 (HCT-116) of the same molecule?
A: 848 nM

Q: And the GI50 (MDA-MB-468)?
A: 1680 nM

Q: What about the GI50 (T-47D) of the same molecule?
A: 3.24 µM

Q: What about the GI50 (DU-145) of the same molecule?
A: 1700 nM

Q: What about the GI50 (MOLT-4) of the same molecule?
A: 1800 nM

Q: What about the GI50 (MALME-3M) of the same molecule?
A: 6.24 µM

Q: What about the GI50 (NCI/ADR-RES) of the same molecule?
A: 5.02 µM

Q: And the GI50 (OVCAR-8)?
A: 3.65 µM

Q: What about the GI50 (OVCAR-5) of the same molecule?
A: 3.3 µM

Q: And the GI50 (PC-3)?
A: 2390 nM

Q: And the GI50 (A498)?
A: 5.48 µM

Q: What about the GI50 (SW-620) of the same molecule?
A: 1430 nM

Q: And the GI50 (SK-MEL-5)?
A: 6.17 µM

Q: And the GI50 (HOP-62)?
A: 3.19 µM

Q: And the GI50 (NCI-H522)?
A: 2600 nM

Q: And the GI50 (HCT15)?
A: 879 nM

Q: What about the GI50 (MDA-MB-435) of the same molecule?
A: 4.14 µM

Q: What about the GI50 (OVCAR-4) of the same molecule?
A: 4.11 µM

Q: What about the GI50 (SN12C) of the same molecule?
A: 2400 nM

Q: What about the GI50 (BT-549) of the same molecule?
A: 3.46 µM

Q: What about the GI50 (SNB-75) of the same molecule?
A: 3.63 µM

Q: What about the GI50 (UACC-257) of the same molecule?
A: 7.24 µM

Q: And the GI50 (NCI-460)?
A: 3.43 µM

Q: What about the GI50 (HL-60(TB)) of the same molecule?
A: 3.8 µM

Q: And the GI50 (HS 578T)?
A: 18.8 µM

Q: What about the GI50 (LOX IMVI) of the same molecule?
A: 870 nM

Q: And the GI50 (786-0)?
A: 1130 nM
